Key:
[1] = given once daily; cited from earlier work
[2] = target: T1, RAC1/CDC42 Rho GTPases (Mus musculus, UniProt P63001); settings: Zallocchi et al. 2013; cited from earlier work
T1 construct: host or cells: Alport mice (in vivo)

[3] = target: T2, endothelin A receptor (Mus musculus, UniProt Q61614); assay: Sitaxentan treatment of Alport mice; type: in vivo
T2 construct: Endothelin A receptors are expressed primarily on mesangial cells; endogenous in cells; host or cells: Alport mice (in vivo)
T2 sequence (Q61614 21-427): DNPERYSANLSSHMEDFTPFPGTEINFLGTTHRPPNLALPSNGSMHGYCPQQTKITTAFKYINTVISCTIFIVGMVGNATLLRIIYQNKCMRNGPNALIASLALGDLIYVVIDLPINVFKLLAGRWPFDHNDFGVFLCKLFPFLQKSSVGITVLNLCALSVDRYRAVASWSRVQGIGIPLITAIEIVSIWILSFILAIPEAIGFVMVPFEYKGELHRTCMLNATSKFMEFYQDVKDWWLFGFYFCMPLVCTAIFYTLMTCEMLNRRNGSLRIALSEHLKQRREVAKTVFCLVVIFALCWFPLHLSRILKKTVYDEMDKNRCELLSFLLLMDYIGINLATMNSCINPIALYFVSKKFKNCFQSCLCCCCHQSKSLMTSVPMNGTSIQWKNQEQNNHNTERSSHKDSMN
Procedure: FIG. 1. […] Alport mice were treated with the indicated dose of Sitaxentan once daily from 2 to 7 weeks of age. Real time RT-PCR analysis for the indicated transcripts was performed on glomerular RNA.
FIGS. 3A and 3B. […] 129-Alport animals were treated with the endothelin A receptor specific blocking agent Sitaxentan from 2 weeks to 7 weeks of age.
FIGS. 4A and 4B. […] In FIG. 4A, urine was collected at the indicated timepoints and analyzed for albumin using an ELISA kit. Albumin measures were normalized to urinary creatinine. […] In FIG. 4B, BUN measures were performed on serum from 7-week-old vehicle or Sitaxentan-treated Alport mice.

[4] = system: pro-fibrotic genes, including Snail1; assay: QIAGEN mouse fibrosis microarray of glomerular RNA from treated Alport mice; type: in vivo
Procedure: FIG. 2. Glomerular RNA from Alport mice treated with vehicle, Sitaxentan, or nAb #7 was analyzed using QIAGEN mouse fibrosis microarray. The data reveal that Sitaxentan (and Ambrisentan) induce a number of pro-fibrotic genes, including Snail1, which is known to play a key role in promoting renal fibrosis (Grande et al., 2015, Nat Med; 21(9):989-97). […] The data is consistent with aberrant signaling activation by classic small molecule ETAR antagonists that results in pro-fibrotic effects, defining a clear potential advantage of the biologic over small molecule approach.
Glomerular RNA from sitaxentan-treated and neutralizing antibody-treated mice was analyzed using QIAGEN mouse fibrosis microarrays.

[5] = target: T2, endothelin A receptor; settings: Dufek et al. 2016, cited from earlier work
[6] = target: T2, endothelin A receptor; assay: Sitaxentan treatment of Alport mice; type: in vivo; settings: 30 mg/kg once daily
[7] = target: T3, ACE (Mus musculus, UniProt P09470); settings: cited from earlier work
T3 construct: host or cells: 129 Sv autosomal Alport mice (in vivo)
T3 sequence (P09470 35-1312): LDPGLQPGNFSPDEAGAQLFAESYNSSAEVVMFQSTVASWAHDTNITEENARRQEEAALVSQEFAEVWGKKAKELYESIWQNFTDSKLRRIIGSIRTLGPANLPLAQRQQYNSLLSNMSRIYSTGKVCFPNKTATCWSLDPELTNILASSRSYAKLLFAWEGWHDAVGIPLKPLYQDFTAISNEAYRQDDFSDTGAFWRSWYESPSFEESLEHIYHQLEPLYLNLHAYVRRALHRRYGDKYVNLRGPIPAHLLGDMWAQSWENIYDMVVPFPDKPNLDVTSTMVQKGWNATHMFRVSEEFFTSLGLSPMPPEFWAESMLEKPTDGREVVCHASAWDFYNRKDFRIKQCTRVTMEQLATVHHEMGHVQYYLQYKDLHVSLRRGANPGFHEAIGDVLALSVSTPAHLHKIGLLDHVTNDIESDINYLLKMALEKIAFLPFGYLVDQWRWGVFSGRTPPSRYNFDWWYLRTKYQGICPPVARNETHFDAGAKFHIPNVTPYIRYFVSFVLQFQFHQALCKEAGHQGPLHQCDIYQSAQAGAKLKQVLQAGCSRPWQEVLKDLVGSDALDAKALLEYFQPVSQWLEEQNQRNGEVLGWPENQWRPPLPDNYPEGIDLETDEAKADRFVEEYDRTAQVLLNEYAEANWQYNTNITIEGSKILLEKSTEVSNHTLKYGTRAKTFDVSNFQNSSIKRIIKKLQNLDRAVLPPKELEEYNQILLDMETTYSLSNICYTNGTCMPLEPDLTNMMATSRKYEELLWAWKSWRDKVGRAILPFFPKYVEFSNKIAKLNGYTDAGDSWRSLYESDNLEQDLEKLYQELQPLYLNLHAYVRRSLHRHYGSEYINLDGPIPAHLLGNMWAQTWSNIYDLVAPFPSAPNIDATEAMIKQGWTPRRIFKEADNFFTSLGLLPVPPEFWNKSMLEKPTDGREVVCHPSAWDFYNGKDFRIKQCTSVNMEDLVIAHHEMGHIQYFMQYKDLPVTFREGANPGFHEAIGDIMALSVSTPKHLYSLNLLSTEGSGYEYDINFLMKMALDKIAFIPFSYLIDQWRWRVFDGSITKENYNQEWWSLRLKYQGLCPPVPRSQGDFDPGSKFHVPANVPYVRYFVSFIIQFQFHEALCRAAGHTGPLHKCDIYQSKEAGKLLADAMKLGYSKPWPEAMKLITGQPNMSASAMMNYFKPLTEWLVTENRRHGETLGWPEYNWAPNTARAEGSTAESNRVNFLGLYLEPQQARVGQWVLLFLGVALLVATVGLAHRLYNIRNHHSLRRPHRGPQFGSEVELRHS

For `COC(c1ccccc1)(c1ccccc1)[C@H](Oc1nc(C)cc(C)n1)C(=O)O` [Ambrisentan], the half-life in mice [1] is listed as 6 h.

In the case of `CCN(CC)CCCC(C)Nc1nc(C)cc(Nc2ccc3nc(C)cc(N)c3c2)n1` (stereo not drawn) [NCS 23766], the “laminin 211 deposition in the Alport GBM” value [2] is given as “largely blocked”.

With `Cc1cc2c(cc1CC(=O)c1sccc1S(=O)(=O)Nc1onc(C)c1Cl)OCO2` [Sitaxentan] the therapeutic effect ([3]; 5 mg/kg) was “little to no significant therapeutic effect”, the BUN ([3]; 30 mg/kg dose) was “not statistically different from vehicle treated Alport mice” and the fibrosis scores ([3]; 30 mg/kg dose) was “not statistically different from vehicle treated Alport mice”. The glomerulosclerosis scores ([3]; 30 mg/kg dose) was “not statistically different from vehicle treated Alport mice”, the proteinuria ([3]; 30 mg/kg dose) was “not statistically different from vehicle treated Alport mice” and the “GBM dysmorphology (TEM)” value ([3]; 7-week-old Alport mice) was “normalized”. For the same molecule, the “serum BUN levels” value ([3]; 7-week-old mice) was “reduces”, the “GBM laminin α2 deposition” value ([3]; 129 Sv/J autosomal Alport mice) was “greatly reduced” and the “age at which measurable urinary albumin was first detected” value ([3]; albumin ELISA normalized to urinary creatinine) was 6 weeks of age. For the same molecule, the “renal disease (renotoxicity)” value ([3]; increasing doses above 10 mg/kg) was “exacerbated renal disease”, the “infiltration of glomerular capillaries with mesangial filopodia” value ([3]; integrin α8 immunopositivity) was “greatly reduced” and the Alport pathogenesis ([3]; low dose 10 mg/kg once daily, 2 to 7 weeks of age) was “ameliorated Alport pathogenesis”. The “glomerular mRNA expression of cytokines and metalloproteinases (MMP-9, MMP-10, MMP-12, MCP-1, IL-6)” value ([3]; real time RT-PCR) was “reduced to near control levels”, the “% glomerulosclerosis” value ([3]; treated 2 to 7 weeks of age) was “reduced to near control levels” and the fibrosis scores ([3]; treated 2 to 7 weeks of age) was “reduced to near control levels”. The “onset and progression of proteinuria” value ([3]; treated 2 to 7 weeks of age) was “significantly delays”, the “induction of pro-fibrotic / pro-inflammatory genes incl. Snail1 in glomeruli” value [4] was “markedly inducing” and the blood pressure ([5]; 129 Sv autosomal Alport mouse model) was “no effect on blood pressure”. The increase in lifespan ([5]; Alport mice) was 20%, the “GBM damage vs vehicle-treated Alport mice” value [5] was “significantly reduced GBM damage” and the lifespan vs vehicle [6] was “shorter lifespan than vehicle treated Alport mice”. For the same molecule, the half-life in mice [1] was 6 h.

For `CCOC(=O)[C@H](CCc1ccccc1)N[C@@H](C)C(=O)N1[C@H](C(=O)O)C[C@@H]2CCC[C@@H]21` [ramipril], the “degree of GBM damage” value ([7]; Gross et al. 2003) is listed as “comparable to untreated Alport mice”, the lifespan ([7]; administered before onset of proteinuria, Gross et al. 2003) is listed as “doubled” and the blood pressure ([7]; mouse, in vivo) is listed as “reduces blood pressure”.

— patent US12577300B2, “Neutralizing antibodies to human endothelin” (Father Flanagan's Boys' Home Doing Business as Boys Town …, priority 2019, dated 2026)
